According to patent publication US10526388B2, “Peptide derived from GPC3, pharmaceutical composition for treatment or prevention of cancer using the same, immunity inducer, and method for producing antigen-presenting cells” (CYTLIMIC INC., priority 2015, dated 2020):
Ends that are not written are not given here.

Tests used:
HLA-A*02:01 molecule = HLA-A*02:01 molecule (Homo sapiens, UniProt P04439, D140Y/D185E/D98H/E176V/E277Q/G131W/G231S/I119V/I121R/I166T/I218V/L300P/L318F/N151K/N90K/P208A/P217A/Q86G/Q94H/R138H/R169H/T345S); assay: Binding experiment of peptide to HLA-A*02:01 molecule (T2 cells, antibody BB7.2, flow cytometer); details: for Kd: T2 cells, 37° C. 4 hours, negative figures given (log of Kd value)
Experimental: The binding capacity of each peptide to the HLA-A*02:01 molecule as the product of HLA-A*02:01 gene was measured using a cell line, T2, (purchased from ATCC) expressing the HLA-A*02:01 molecule.
T2 cells and purified β2m were added to stepwise dilution series of a peptide whose binding capacity was to be measured, which was then incubated at 37° C. for 4 hours.
(§1) Thereafter, the amount of fluorescence per cell was measured using a flow cytometer, and the dissociation constant, Kd value, was calculated using a method as published in a paper by the present inventor (Udaka et al., Immunogenetics, 51, 816-828, 2000).

HLA-A*02:06 molecule = biological target: T1, HLA-A*02:06 molecule (Homo sapiens, UniProt P04439, D140Y/D185E/D98H/E176V/E277Q/F33Y/G131W/G231S/I119V/I121R/I166T/I218V/L300P/L318F/N151K/N90K/P208A/P217A/Q86G/Q94H/R138H/R169H/T345S); assay: Binding experiment of peptide to HLA-A*02:06 molecule (RA2.6 cells, antibody BB7.2, flow cytometer); details: for Kd: RA2.6 cells, 26° C. 60 minutes then 35° C. 4 hours, negative figures given (log of Kd value)
T1 construct: expressed in transfected cells; host or cells: RA2.6 cells (RMAS mouse TAP-deficient line carrying HLA-A*02:06 cDNA; prepared at Kochi University)
Experimental: The binding capacity of each peptide to the HLA-A*02:06 molecule as the product of HLA-A*02:06 gene was measured using RA2.6 cells (a cell line newly prepared at Kochi University) in which cDNA of the HLA-A*02:06 gene was introduced into RMAS as a mouse TAP (transporter associated with antigen processing)-deficient cell line.
First, the RA2.6 cells were cultured overnight at 26° C. to accumulate the HLA-A*02:06 molecules unbound to the peptide on the cell surface. Any of peptide dilution series was added thereto for binding at 26° C. for 60 minutes.
Subsequently, the mixture was cultured at 35° C. for 4 hours, resulting in the denaturation of the empty HLA-A*02:06 molecule unbound to the peptide and the loss of its steric structure. A fluorescent labeled monoclonal antibody, BB7.2, specifically recognizing a peptide-bound HLA-A*02:06 molecule, was added thereto, which was then incubated on ice for 20 minutes to stain the cells.
as §1

HLA-A*24:02 molecule = HLA-A*24:02 molecule (Homo sapiens, UniProt P04439, D101N/D140Y/D185E/E176V/E190D/F33S/G103R/G107R/I119L/I121M/I306V/K335N/L105A/L180Q/L300P/N151K/N90K/Q86E/Q94H/R106L/R138H/R89G/T104I/T345S/V100E/W191G/Y123F); assay: Binding experiment of peptide to HLA-A*24:02 molecule (C1R-A24 cells, antibody 17A12, FACScan); details: for Kd: C1R-A24 cells, on ice 4 hours, negative figures given (log of Kd value)
Experimental: The binding capacity of each peptide to the HLA-A*24:02 molecule as the product of HLA-A*24:02 gene was measured using C1R-A24 cells expressing the HLA-A*24:02 molecule (the cells prepared by Prof. Masafumi Takeguchi, Kumamoto University were gifted by Assoc. Prof. Masaki Yasukawa, Ehime University with permission).
First, C1R-A24 cells were exposed to acidic conditions of pH 3.3 for 30 seconds to dissociate and remove endogenous peptides which were originally bound to the HLA-A*24:02 molecule and a light chain, […], which was commonly associated with HLA class I molecules. After neutralization, purified β2m was added to the C1R-A24 cells, which was then added to peptide dilution series. The mixtures were each then incubated on ice for 4 hours. The 3-molecule assembly (MHC-pep) consisting of the HLA-A*24:02 molecule, the peptide, and β2 m which had been reasociated during the incubation was stained with a fluorescent labeled monoclonal antibody, 17A12, recognizing the assembly.
Subsequently, the number of MHC-pep's per C1R-A24 cell (which is proportional to the fluorescent intensity of the above fluorescent antibody) was quantitatively measured using a fluorescent cell analyzer, FACScan (Becton, Dickinson and Company). The binding dissociation constant, Kd value, between the HLA-A*24:02 molecule and the peptide was calculated from the average fluorescent intensity per cell using a method as published in a paper (Udaka et al., Immunogenetics, 51, 816-828, 2000) by the present inventor.

CD8T cells = assay: Immunity induction test of peptide (peptide-stimulated dendritic cells cocultured with CD8T cells, IFN-γ ELISPOT / ELISA); assay type: cell-based, human
Experimental: (1) Preparation of Peptide-stimulated Dendritic Cell
Of peripheral blood monocytes obtained by pheresis from the patient treated with HSP70 dendritic cell therapy, a cell fraction adhering to the culture flask was cultured in AIM-CM medium (trade name “Gibco” from Thermo Fisher Scientific Co., Ltd.) at 37° C. for 10 days. During culture, 15 μl of IL-4 and 30 μl of granulocyte-monocyte colony-stimulating factor (GM-CSF) were added to the medium at day 0 and day 3, and 15 μl of IL-4, 30 μl of GM-CSF, and 75 μl of tumor necrosis factor (TNF)-α were added at day 5.
The dendritic cells induced were newly recovered into AIM-CM medium, and the peptides of the present invention (SEQ ID NOS: 1 to 11) were each added to 20 μg/ml. […]
The dendritic cells were recovered, washed 3 times or more with a sufficient amount of AIM-CM medium, and counted. […]
Using CD8 Negative Selection Kit (from Miltenyi Biotec), CD8T cells were separated from the medium and counted. […]
A culture supernatant at day 7 after coculture of T cells with dendritic cells pulsed with each of the above peptides was diluted to the 4 levels of ×1, ×5, ×25, and ×125 to identify the dilution level falling within the limit of measurement using Human IFN-γ ELISA MAX Deluxe Set (from BioLegend Inc.). Thereafter, each sample was measured 3 times at the identified dilution level. […]

Sequence	Kd (HLA-A*02:01 molecule) [µM]	Kd (HLA-A*02:06 molecule) [µM]	Kd (HLA-A*24:02 molecule) [µM]	binding to HLA-A*02:01 molecule (in words) (HLA-A*02:01 molecule)	immunogenicity (in words) (CD8T cells)	binding to HLA-A*02:06 molecule (in words) (HLA-A*02:06 molecule)	binding to HLA-A*24:02 molecule (in words) (HLA-A*24:02 molecule)
LFDSLFPVI [SEQ ID NO: 2, LFDSLFPVI]	8.61	> 1000	0.0374	–	–	–	–
LLQSASMEL [SEQ ID NO: 8, LLQSASMEL]	0.73	1.33	3.25	–	–	–	–
ARLNMEQLL [SEQ ID NO: 11, ARLNMEQLL]	144	1720	6.26	–	–	–	–
SLQVTRIFL [SEQ ID NO: 4, SLQVTRIFL]	0.616	6.11	4.61	–	–	–	–
SALDINECL [SEQ ID NO: 3, SALDINECL]	> 1000	0.483	> 1000	–	–	–	–
MVNELFDSL [SEQ ID NO: 1, MVNELFDSL]	4.94	0.724	20	–	–	–	–
ALNLGIEVI [SEQ ID NO: 7, ALNLGIEVI]	1.21	69	111	strongly binds	high immunogenicity	strongly binds	strongly binds
GMIKVKNQL [SEQ ID NO: 10, GMIKVKNQL]	17.5	439	0.125	–	–	–	–
SLTPQAFEF [SEQ ID NO: 5, SLTPQAFEF]	11.9	30.5	0.077	–	–	–	–
KLTTTIGKL [SEQ ID NO: 9, KLTTTIGKL]	10.7	9.25	6.14	–	–	–	–
GYICSHSPV [SEQ ID NO: 6, GYICSHSPV]	> 1000	> 1000	0.283	–	–	–	–
